The values below are quoted from earlier work in patent US7195778B2, “Drug delivery system for zero order, zero order-biphasic, ascending or descending drug delivery” (Teva Pharmaceutical Industries Ltd., priority 2001, dated 2007).

Where a name gives a salt, the structure may show the parent alone. Read-outs that look alike come from different tables or passages of the source.

Regarding `COC(=O)C(c1ccccc1)C1CCCCN1` (stereo not shown) [methylphenidate HCl], the drug excreted is, setting by setting: (adults) 80%; (children) 67%. Besides, the time to peak (children, immediate release) is 1.9 h. Besides, where the note is “children, immediate release”, the “time to peak, range” value was 0.3 to 4.4 h. The primary adverse events result (chronic dosing) was “nervousness, insomnia and appetite suppression”. For the setting “immediate release”, the pharmacokinetic half-life is 2 to 3 h. Moreover, the “AD/HD patients responding positively” value (reports) is 70–90%.
